# According to PubChem BioAssay AID2823 (Broad Institute, 2010):
# Calls of active or inactive are those of the source. The rule behind the calls is not given here.
# Biological target: RanGTP-importin-beta complex (human Ran / KPNB1)
# Assay: disruptors of RanGTP/KPNB1 binding – biochemical, FRET, CFP/YFP, cell-free homogeneous, confirmation (AID 2823)
# Settings: CFP-Ran/YFP-importin-beta FRET ratio
row,Structure (SMILES),IC50
1,COc1cccc(-c2cc(C(=O)NC3CC3)c3ccccc3n2)c1,> 50 µM (inactive)
2,CC1(C(=O)O)C=CCN1C(=O)c1ccccc1 (stereo unspecified),> 50 µM (inactive)
3,COC(=O)C1=CN(Cc2ccc(OC)c(OC)c2)C=C(C(=O)OC)C1c1cccc(O)c1,14.3 µM
4,CC(C)OCCCNC(=O)CCSc1ccc(Cl)cc1,> 50 µM (inactive)
5,O=C(O)C1CCCC2CN3CCc4c([nH]c5ccccc45)C3C(O)C21 (stereo unspecified),> 50 µM (inactive)
6,COc1ccc(Cl)cc1S(=O)(=O)Nc1noc2ccccc12,> 50 µM (inactive)
7,N#Cc1c2ncn(CC(=O)c3ccc(Br)cc3)c(=O)c2c2n1CCC2,> 50 µM (inactive)
8,O=C(Nc1cccc(-c2nc3ccccc3s2)c1)c1cccs1,> 50 µM (inactive)
9,Cc1[nH]nc2c1C(c1ccoc1)C(C#N)=C(N)O2 (stereo unspecified),> 50 µM (inactive)
10,CCC(=O)NCCNc1nc2cc(C)c(C)cc2cc1C#N,16 µM
11,CCN1/C(=C\C=C\C2=[N+](CC)c3ccccc3C2(C)C)C(C)(C)c2ccccc21,9.18 µM
12,COC(=O)c1ccc2nc(NC(=O)C(C)(C)C)sc2c1,> 50 µM (inactive)
13,CC(=O)N1CCc2c(sc(NC(=O)CS(=O)(=O)c3ccc(F)cc3)c2C(N)=O)C1,> 50 µM (inactive)
14,CC(c1nc2ccccc2n1Cc1ccccc1)N1CCCCC1 (stereo unspecified),> 50 µM (inactive)
15,C=CCOc1c(Br)cc(CNc2ccc(NC(=O)C(C)C)c(OC)c2)cc1OC,> 50 µM (inactive)
16,Cc1ccccc1-n1c(=O)cc(N2CC(C)OC(C)C2)[nH]c1=O (stereo unspecified),> 50 µM (inactive)
17,Cc1ccc2nc(N3CCN(C(=O)c4ccc(F)cc4)CC3)c(C#N)cc2c1,23.3 µM
18,CCOCCCn1c(=N)c(C(=O)NCc2ccc3c(c2)OCO3)cc2c(=O)n3cccc(C)c3nc21,14.9 µM
19,COc1ccccc1/C=C/c1nc(C#N)c(N(C)C)o1,17.4 µM
20,COc1ccc2c(C)c(C(=O)N3CC[C@@H](N4CCC(O)CC4)[C@H](O)C3)oc2c1,> 50 µM (inactive)
21,Cc1c(CC(=O)N2CCN(C(=O)C3COc4ccccc4O3)CC2)c(=O)oc2c(C)c(O)ccc12 (stereo unspecified),20.8 µM
22,CCc1ccc(C(=O)CSc2ncn[nH]2)cc1,> 50 µM (inactive)
23,Cc1[nH]c2ccccc2c1/C=C/c1nc2ccccc2c(=O)n1CCO,> 50 µM (inactive)
24,Cc1cc(/C=C2\C(=O)NC(=O)N(c3ccc(F)cc3)C2=O)c(C)n1-c1ccc(C(=O)O)cc1,> 50 µM (inactive)
25,Cc1ccc(NC(=S)NCCN2CCOCC2)cc1,> 50 µM (inactive)
26,COC(=O)c1ccc2c(C(C)(C)O)c(C(C)(C)O)[nH]c2c1,> 50 µM (inactive)

row,Structure (SMILES),IC50
1,CCc1ccc(C2C3=C(CC(C)(C)CC3=O)Nc3c2c(=O)[nH]c2nc(C)nn32)cc1 (stereo unspecified),7.01 µM
2,CCN(C(=O)c1ccc(Cl)cc1[N+](=O)[O-])c1ccccc1C,> 50 µM (inactive)
3,Cc1nc2ccccc2c2oc(C(=O)NCCCN3CCC(C)CC3)cc12,> 50 µM (inactive)
4,Cc1ccccc1-n1nc2c(c1NC(=O)c1cc3ccccc3oc1=O)CS(=O)(=O)C2,> 50 µM (inactive)
5,CCCc1n(CC(O)COCc2ccccc2)c2ccccc2[n+]1C (stereo unspecified),> 50 µM (inactive)
6,CCCc1noc(-c2cccc([N+](=O)[O-])c2)n1,> 50 µM (inactive)
7,CCC(=O)Nc1c(S(=O)(=O)c2ccccc2)c2nc3ccccc3nc2n1Cc1ccccc1,20.9 µM
8,COc1cc2c(cc1OC)CN(Cc1cc(=O)oc3cc(C)c(Cl)cc13)CC2,> 50 µM (inactive)
9,Cc1cc2oc3cc(NCCC4CCCN4C)ccc3c(=O)c2cc1C (stereo unspecified),8.12 µM
10,COc1ccc(CNCc2c(O)c(Cl)cc3c(C)c(C)c(=O)oc23)c(OC)c1,6.06 µM
11,CC(C)OC(=O)c1nnn(-c2nonc2N)c1CN1CCCCCC1,> 50 µM (inactive)
12,Cc1c(CC(=O)NCC(=O)N[C@H](Cc2ccccc2)C(=O)O)c(=O)oc2cc(O)ccc12,46.2 µM
13,COc1ccc(NS(=O)(=O)c2cc(NC(=O)c3cccs3)ccc2N2CCOCC2)cc1,> 50 µM (inactive)
14,O=C(Nc1cnc2ccccc2c1)c1cccc(-n2cnnn2)c1,> 50 µM (inactive)
15,O=C(CSCC(=O)NC1CC1)Nc1ccccc1,> 50 µM (inactive)
16,Cc1cccc(C)c1N1CCN(S(=O)(=O)c2ccc(F)cc2)CC1,> 50 µM (inactive)
17,Cc1cccc(NS(=O)(=O)c2ccc(C(=O)N3CCCCCC3)cc2)c1C,> 50 µM (inactive)
18,O=c1nc(-c2ccccc2Cl)c2cc(F)ccc2[nH]1,> 50 µM (inactive)
19,Cc1cccc(-n2c(C)cc(/C=C3\C(=N)N4N=C(CC(C)C)SC4=NC3=O)c2C)c1,10.6 µM
20,CSc1nc(NCC(C)C)c2c3c(sc2n1)CN(C)CC3,44.2 µM
21,CCc1c(C)c2cc(Cl)c(O)c(CN3CCCCC3)c2oc1=O,22.9 µM
22,CC(C)(C)c1ccc(S(=O)(=O)NCC(=O)N2CCN(C(=O)c3ccco3)CC2)cc1,> 50 µM (inactive)
23,COc1cc(/C(O)=C(\C#N)c2nc3ccccc3[nH]2)cc(OC)c1OC,15.5 µM
24,CCCCc1c(C)c(C#N)c2nc3ccccc3n2c1Nc1c(C)n(C)n(-c2ccccc2)c1=O,45 µM
25,N#Cc1c(N)nc2c(c1-c1ccccc1)CCC2,14.3 µM
